Active and inactive are the calls of the source.
Experiments:
[1] = Luminescence Cell-Based Dose Response Follow up to Identify Inhibitors of Platelet Dense Granule Release. [Related pubchem assays (depositor defined):AID1663, AID1678, AID2398]; assay type: functional
[2] = blockers of SFLLRN-triggered platelet ATP secretion – cell-based, human platelets, luminescence, dry powder, dose response (AID 493100); assay type: functional
MDCK [3] = test: MDCK cell cytotoxicity, dose response, cytotoxicity control (AID 540296); assay type: functional; conditions: Canis lupus familiaris
Nonstructural protein 1 = Nonstructural protein 1 (Influenza A virus, UniProt Q194T2); assay type: functional, Influenza A virus (A/California/07/2009(H1N1))
MDCK [4] = test: antiviral activity against H1N1 influenza, dose response, cell-based, strain KY180 (AID 540254); assay type: functional; conditions: Canis lupus familiaris
Vero = test: Vero E6 cell cytotoxicity, dose response, cytotoxicity control (AID 540298); assay type: functional; conditions: Chlorocebus sabaeus
[5] = molecular target: RNA-editing ligase 1, mitochondrial (Trypanosoma brucei brucei, UniProt P86926); test: TbREL1 ligase inhibitors, dose response, biochemical, fluorescence, Trypanosoma brucei (AID 1117295); assay type: functional
[6] = molecular target: T1, Sentrin-specific protease 7 (Homo sapiens, UniProt Q9BQF6); test: SENP7 protease inhibitors, SAR follow-up, biochemical, luminescence, set 2 (AID 588600); assay type: functional
T1 sequence (Q9BQF6 whole entry): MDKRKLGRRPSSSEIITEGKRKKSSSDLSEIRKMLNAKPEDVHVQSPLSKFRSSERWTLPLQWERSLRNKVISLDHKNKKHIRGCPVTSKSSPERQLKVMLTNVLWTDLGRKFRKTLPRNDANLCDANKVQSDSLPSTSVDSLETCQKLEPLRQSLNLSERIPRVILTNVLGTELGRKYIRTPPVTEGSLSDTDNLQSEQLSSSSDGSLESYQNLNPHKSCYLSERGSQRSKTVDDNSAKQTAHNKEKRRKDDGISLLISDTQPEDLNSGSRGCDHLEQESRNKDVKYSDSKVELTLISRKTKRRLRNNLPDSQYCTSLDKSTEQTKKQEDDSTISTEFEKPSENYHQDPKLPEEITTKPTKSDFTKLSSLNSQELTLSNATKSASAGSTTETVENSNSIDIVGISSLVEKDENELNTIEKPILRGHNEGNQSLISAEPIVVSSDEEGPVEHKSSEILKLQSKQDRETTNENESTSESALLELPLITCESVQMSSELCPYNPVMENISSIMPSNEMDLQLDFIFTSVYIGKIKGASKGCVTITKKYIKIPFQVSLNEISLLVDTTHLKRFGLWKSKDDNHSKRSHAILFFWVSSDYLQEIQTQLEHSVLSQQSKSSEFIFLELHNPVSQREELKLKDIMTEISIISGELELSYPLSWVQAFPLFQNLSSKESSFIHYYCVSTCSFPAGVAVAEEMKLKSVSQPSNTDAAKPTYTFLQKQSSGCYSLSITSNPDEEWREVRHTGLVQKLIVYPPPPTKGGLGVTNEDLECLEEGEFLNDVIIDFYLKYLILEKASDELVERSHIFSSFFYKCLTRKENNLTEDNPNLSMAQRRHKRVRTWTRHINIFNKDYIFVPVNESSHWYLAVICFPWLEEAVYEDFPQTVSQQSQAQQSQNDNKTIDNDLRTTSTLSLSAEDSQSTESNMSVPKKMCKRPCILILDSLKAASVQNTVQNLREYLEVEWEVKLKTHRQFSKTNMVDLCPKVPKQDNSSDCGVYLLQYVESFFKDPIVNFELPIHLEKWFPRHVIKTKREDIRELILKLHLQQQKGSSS

[7] = molecular target: T1, Sentrin-specific protease 7; test: SENP7 protease inhibitors, SAR follow-up, biochemical, luminescence (AID 504497); assay type: functional
[8] = molecular target: T2, Sentrin-specific protease 6 (Homo sapiens, UniProt Q9GZR1); test: SENP6 protease inhibitors, SAR follow-up, biochemical, luminescence, set 2 (AID 588598); assay type: functional
T2 sequence (Q9GZR1 whole entry): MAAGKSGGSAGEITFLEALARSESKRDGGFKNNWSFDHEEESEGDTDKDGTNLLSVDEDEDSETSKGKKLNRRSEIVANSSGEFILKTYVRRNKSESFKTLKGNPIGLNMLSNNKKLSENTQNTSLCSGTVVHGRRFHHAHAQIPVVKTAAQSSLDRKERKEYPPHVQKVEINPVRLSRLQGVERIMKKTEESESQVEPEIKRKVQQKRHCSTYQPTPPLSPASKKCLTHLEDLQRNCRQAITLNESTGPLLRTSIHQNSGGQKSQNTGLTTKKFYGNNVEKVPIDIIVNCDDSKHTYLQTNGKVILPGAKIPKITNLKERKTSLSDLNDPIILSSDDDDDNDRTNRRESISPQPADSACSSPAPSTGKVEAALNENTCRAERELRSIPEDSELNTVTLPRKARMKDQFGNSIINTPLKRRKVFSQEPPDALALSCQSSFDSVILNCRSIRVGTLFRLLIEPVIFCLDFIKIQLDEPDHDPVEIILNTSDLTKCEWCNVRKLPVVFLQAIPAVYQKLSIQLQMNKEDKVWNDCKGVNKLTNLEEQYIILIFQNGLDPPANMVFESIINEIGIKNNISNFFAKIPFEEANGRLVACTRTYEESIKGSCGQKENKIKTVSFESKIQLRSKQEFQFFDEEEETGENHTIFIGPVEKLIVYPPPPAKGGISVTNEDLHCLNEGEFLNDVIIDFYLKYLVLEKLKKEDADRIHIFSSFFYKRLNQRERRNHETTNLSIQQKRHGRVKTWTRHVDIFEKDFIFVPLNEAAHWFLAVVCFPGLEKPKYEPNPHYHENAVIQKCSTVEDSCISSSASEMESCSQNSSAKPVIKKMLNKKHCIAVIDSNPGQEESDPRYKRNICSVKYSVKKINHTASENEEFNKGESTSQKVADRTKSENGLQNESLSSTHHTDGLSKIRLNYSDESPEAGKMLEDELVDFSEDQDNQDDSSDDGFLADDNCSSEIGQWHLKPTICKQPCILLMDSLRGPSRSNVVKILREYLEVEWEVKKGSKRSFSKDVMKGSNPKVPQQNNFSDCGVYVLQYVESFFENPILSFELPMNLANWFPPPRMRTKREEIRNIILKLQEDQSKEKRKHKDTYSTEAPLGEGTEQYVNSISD

[9] = molecular target: T3, Sentrin-specific protease 8 (Homo sapiens, UniProt Q96LD8); test: SENP8 protease inhibitors, SAR follow-up, biochemical, luminescence, set 2 (AID 588601); assay type: functional
T3 sequence (Q96LD8 whole entry): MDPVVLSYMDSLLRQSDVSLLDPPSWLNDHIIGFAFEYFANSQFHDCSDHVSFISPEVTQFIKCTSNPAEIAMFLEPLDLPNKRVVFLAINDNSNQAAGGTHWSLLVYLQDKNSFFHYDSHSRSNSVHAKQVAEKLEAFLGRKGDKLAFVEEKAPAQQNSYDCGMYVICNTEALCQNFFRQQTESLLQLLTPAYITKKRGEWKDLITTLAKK

[10] = molecular target: T3, Sentrin-specific protease 8; test: SENP8 protease inhibitors, SAR follow-up, biochemical, luminescence (AID 504501); assay type: functional
[11] = molecular target: T2, Sentrin-specific protease 6; test: SAR Analysis of small molecule inhibitors of Sentrin-specific protease 6 (SENP6) using a Luminescent assay. [Related pubchem assays (depositor defined):AID2582, AID2599]; assay type: functional
Caspase-3 [12] = molecular target: T4, Caspase-3 (Homo sapiens, UniProt P42574); test: caspase-3 inhibitors as off-family protease, SAR follow-up, selectivity assay for SENP protease inhibitor project, biochemical, luminescence, set 2 (AID 588599); assay type: functional
T4 sequence (P42574 whole entry): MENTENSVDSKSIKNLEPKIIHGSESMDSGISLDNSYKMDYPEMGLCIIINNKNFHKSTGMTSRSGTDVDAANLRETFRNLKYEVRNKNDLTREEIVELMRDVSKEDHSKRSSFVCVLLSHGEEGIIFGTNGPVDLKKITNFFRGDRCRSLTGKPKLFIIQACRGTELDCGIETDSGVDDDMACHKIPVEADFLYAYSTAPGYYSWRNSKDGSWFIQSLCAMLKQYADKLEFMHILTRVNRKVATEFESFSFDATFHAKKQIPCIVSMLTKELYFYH

Caspase-3 [13] = molecular target: T4, Caspase-3; test: SAR Analysis of small molecule inhibitors of Sentrin-specific proteases (SENPs) using a Caspase-3 Selectivity assay. [Related pubchem assays (depositor defined):AID2540, AID2599, AID434973, AID489001]; assay type: functional
[14] = molecular target: T5, Apoptotic protease-activating factor 1 (Homo sapiens, UniProt O14727); test: activation of Apaf-1 mediated apoptosis – fluorescent, uHTS hits, dose response (AID 588554); assay type: functional
T5 sequence (O14727 whole entry): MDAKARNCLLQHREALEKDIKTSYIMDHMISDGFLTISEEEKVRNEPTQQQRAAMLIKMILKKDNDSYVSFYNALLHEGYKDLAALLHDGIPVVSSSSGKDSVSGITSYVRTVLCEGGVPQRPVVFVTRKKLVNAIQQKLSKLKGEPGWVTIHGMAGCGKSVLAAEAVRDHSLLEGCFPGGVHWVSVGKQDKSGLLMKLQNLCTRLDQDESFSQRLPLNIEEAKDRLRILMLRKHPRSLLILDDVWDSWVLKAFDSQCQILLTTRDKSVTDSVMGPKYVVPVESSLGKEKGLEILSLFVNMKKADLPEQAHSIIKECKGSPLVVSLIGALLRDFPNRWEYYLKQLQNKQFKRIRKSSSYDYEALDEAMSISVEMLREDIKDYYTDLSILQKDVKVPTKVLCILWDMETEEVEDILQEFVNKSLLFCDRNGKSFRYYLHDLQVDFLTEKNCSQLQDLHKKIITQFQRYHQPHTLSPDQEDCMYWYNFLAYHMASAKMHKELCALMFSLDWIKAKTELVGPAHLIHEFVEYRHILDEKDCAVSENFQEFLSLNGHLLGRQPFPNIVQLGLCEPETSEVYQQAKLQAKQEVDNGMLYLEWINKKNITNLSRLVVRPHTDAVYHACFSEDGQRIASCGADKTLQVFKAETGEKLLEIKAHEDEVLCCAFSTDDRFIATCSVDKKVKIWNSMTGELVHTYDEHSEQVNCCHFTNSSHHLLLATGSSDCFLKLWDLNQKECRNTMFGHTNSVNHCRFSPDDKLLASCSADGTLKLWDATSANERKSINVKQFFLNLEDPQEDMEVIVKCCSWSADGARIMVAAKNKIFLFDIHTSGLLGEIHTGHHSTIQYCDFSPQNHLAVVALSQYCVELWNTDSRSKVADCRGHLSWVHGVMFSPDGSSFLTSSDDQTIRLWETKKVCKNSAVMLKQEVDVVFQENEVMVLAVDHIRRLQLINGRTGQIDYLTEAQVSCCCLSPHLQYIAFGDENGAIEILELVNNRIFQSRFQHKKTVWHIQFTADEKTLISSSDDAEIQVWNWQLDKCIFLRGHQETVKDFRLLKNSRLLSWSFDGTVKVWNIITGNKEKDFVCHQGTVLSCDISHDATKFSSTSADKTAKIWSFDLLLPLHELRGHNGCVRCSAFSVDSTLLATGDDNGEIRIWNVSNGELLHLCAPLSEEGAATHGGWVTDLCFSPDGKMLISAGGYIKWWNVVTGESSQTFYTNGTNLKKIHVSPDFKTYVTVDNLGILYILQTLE

[15] = molecular target: T6, Carboxy-terminal domain RNA polymerase II polypeptide A small phosphatase 1 (Homo sapiens, UniProt Q9GZU7); test: inhibitors of CTDSP1, concentration-response testing, biochemical assay, absorbance-based, actives from ultra-high-throughput screening (AID 540297); assay type: functional
T6 sequence (Q9GZU7 whole entry): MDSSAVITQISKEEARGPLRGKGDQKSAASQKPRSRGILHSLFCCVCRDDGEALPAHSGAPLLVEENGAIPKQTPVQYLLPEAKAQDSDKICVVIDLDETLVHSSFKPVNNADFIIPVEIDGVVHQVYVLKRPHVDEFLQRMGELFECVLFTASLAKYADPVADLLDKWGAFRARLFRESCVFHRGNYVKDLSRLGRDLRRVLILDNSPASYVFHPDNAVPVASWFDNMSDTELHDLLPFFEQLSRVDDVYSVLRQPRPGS

[16] = molecular target: Beta-adrenergic receptor kinase 1 (Homo sapiens, UniProt P25098); test: aptamer displacement from bead-bound GRK2 – biochemical, cherry pick 1, bead flow cytometry, dose response (AID 504500)
[17] = molecular target: T7, Small ubiquitin-related modifier 1 (Homo sapiens, UniProt P63165); test: inhibitors of SUMO1 peptide binding, dose response, biochemical, fluorescence polarization, uHTS hits (AID 624382); assay type: functional; conditions: read-out: IC50_Mean
[18] = molecular target: DNA dC->dU-editing enzyme APOBEC-3A (Homo sapiens, UniProt P31941); test: APOBEC3A DNA deaminase inhibitors, dose response, biochemical (AID 504722); assay type: functional
[19] = molecular target: Induced myeloid leukemia cell differentiation protein Mcl-1 (Homo sapiens, UniProt Q07820); assay type: functional
[20] = molecular target: T7, Small ubiquitin-related modifier 1; test: inhibitors of SUMO1 partner interactions, dose response, biochemical, FRET (AID 624383); assay type: functional; conditions: read-out: IC50_Mean
[21] = molecular target: DNA dC->dU-editing enzyme APOBEC-3G (Homo sapiens, UniProt Q9HC16); test: Dose Response confirmation of small molecule APOBEC3G DNA Deaminase Inhibitors via a fluorescence-based single-stranded DNA deaminase assay. [Related pubchem assays (depositor defined):AID493012, AID493028]; assay type: functional
Sequence of DNA dC->dU-editing enzyme APOBEC-3G (Q9HC16 whole entry): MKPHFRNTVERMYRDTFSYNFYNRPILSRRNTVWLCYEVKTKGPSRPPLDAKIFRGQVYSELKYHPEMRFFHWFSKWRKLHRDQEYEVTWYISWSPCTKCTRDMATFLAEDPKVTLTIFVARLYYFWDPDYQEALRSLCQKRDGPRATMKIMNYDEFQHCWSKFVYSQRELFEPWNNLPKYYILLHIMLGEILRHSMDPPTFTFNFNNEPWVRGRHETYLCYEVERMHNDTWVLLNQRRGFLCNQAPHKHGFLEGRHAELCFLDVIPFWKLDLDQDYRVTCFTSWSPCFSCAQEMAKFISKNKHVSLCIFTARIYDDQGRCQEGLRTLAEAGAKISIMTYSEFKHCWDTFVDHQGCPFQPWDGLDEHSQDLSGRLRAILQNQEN

T7 sequence (P63165 whole entry): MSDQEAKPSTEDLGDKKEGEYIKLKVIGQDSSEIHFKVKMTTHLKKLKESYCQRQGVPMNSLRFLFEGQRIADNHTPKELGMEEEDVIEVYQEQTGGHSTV
Sequence of RNA-editing ligase 1, mitochondrial (P86926 whole entry): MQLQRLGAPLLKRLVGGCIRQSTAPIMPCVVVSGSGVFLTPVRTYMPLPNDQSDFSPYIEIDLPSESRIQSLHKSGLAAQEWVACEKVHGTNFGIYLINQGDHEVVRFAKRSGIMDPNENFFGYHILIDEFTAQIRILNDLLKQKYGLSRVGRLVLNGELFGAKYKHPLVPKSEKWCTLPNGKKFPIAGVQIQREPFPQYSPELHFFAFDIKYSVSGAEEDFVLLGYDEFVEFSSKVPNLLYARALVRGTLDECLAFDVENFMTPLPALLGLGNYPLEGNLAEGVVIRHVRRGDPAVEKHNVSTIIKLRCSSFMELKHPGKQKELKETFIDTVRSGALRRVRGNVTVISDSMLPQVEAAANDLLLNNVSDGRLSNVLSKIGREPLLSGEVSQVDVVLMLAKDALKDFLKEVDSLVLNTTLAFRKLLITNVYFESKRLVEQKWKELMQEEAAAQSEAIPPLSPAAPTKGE
Sequence of Induced myeloid leukemia cell differentiation protein Mcl-1 (Q07820 whole entry): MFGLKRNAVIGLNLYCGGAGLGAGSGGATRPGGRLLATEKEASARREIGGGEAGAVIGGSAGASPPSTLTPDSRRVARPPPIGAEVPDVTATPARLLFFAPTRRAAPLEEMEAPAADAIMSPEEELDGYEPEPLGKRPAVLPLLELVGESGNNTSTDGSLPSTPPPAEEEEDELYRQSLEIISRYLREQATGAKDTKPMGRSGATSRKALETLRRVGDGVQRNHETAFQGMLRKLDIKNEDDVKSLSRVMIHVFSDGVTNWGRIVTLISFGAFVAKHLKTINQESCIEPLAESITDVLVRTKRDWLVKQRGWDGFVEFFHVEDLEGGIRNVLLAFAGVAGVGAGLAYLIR
Sequence of DNA dC->dU-editing enzyme APOBEC-3A (P31941 whole entry): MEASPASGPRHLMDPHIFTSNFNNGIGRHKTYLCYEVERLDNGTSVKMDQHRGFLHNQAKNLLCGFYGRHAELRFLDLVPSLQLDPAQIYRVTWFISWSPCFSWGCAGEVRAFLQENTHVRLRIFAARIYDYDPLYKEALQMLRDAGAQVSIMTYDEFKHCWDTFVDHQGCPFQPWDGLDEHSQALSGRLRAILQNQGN
Sequence of Beta-adrenergic receptor kinase 1 (P25098 whole entry): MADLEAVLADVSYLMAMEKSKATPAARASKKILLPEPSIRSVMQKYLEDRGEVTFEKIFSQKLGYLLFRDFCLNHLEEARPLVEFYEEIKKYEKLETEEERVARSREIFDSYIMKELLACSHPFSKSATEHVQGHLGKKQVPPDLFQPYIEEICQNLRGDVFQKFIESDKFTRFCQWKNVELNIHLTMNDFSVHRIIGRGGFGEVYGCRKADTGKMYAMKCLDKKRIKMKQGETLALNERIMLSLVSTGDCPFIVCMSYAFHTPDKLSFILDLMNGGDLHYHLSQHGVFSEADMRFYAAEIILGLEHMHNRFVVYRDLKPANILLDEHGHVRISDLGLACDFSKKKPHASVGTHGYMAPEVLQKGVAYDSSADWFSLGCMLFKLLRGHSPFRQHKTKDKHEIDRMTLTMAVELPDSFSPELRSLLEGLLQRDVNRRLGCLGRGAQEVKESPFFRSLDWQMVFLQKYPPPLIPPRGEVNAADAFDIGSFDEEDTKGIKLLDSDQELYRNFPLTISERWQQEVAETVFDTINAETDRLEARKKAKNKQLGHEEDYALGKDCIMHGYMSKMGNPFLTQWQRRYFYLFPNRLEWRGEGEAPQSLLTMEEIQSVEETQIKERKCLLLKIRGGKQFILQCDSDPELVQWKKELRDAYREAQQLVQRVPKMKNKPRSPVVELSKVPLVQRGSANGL
Sequence of Nonstructural protein 1 (Q194T2 whole entry): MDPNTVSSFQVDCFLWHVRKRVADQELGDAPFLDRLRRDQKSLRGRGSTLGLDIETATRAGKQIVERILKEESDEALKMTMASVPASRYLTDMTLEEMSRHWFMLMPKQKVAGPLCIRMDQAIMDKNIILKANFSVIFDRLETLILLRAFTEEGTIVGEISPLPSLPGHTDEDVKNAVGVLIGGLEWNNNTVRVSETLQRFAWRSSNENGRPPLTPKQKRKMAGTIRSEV

## CCCCC(=O)N/N=C(\C)c1ccc(NC(=O)C(F)(F)F)cc1
[1]
  EC50: 5.49 µM (active)
[2]
  AC50: 41.3 µM (active)

## CCN(c1ccccc1)S(=O)(=O)c1ccc(C(=O)N(CCCN(C)C)c2nc3c(C)cccc3s2)cc1
MDCK [3]
  CC50: 10.8 µM (active)
Nonstructural protein 1
  IC50: > 100 µM (active)
MDCK [4]
  IC50: > 100 µM (active)
Vero
  CC50: 16 µM (active)
[5]
  IC50: > 96.6 µM (inactive)

## COc1cc(/C=C/c2noc(-c3ccccc3O)n2)ccc1OCC(=O)O
[6]
  IC50: 72.3 µM (active)
[7]
  IC50: 18 µM (active)
[8]
  IC50: 21.9 µM (active)
[9]
  IC50: 46.3 µM (active)
[10]
  IC50: > 99 µM (inactive)
[11]
  IC50: > 99 µM (inactive)
Caspase-3 [12]
  IC50: 28.2 µM (active)
Caspase-3 [13]
  IC50: 54 µM (active)

## C=C(C)C(=O)Nc1cccc(C2=NOC3(C2)C[C@H](C(N)=O)N(C(=O)/C=C/C)C3)c1 (stereo partly drawn)
[14]
  EC50: 2.71 µM (active)
[15]
  IC50: 1.61 µM (active)
[16]
  EC50: 21.3 µM (inactive)
[17]
  IC50: > 66.6 µM (inactive)
[18]
  IC50: > 100 µM (inactive)
[19]
  IC50: 3.48 µM (active)
[20]
  IC50: 1.93 µM (active)
[21]
  IC50: 6.14 µM (active)

— ChEMBL document CHEMBL1201862, “PubChem BioAssay data set” (2004)
